These results are taken from publication PMC7555825, “New Insights of the Zn(II)-Induced P2 × 4R Positive Allosteric Modulation: Role of Head Receptor Domain SS2/SS3, E160 and D170” (International Journal of Molecular Sciences, 2020).

One test concerns the target T1, rP2 × 4R D170N mutant (Rattus norvegicus, UniProt P51577, D170N).
T1 construct: host or cells: Xenopus laevis oocytes
T1 sequence (P51577 1-388 D170N): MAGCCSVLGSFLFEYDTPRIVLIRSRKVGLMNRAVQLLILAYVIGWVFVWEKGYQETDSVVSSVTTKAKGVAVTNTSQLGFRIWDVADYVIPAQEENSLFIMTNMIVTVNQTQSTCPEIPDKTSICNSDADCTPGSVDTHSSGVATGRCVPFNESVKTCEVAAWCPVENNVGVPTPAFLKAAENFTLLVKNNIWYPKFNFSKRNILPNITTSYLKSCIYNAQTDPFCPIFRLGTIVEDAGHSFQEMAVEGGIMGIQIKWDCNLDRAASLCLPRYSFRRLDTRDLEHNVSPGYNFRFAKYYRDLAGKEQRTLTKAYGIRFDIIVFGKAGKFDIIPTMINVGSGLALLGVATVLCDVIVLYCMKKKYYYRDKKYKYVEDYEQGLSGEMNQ
The test is described as follows: ATP concentration–response curves, voltage clamp, D170N mutant. To be noted: for EC50: ATP EC50, D170N. In kind it is cell-based.

The next test addresses T2, rP2 × 4R C149A mutant (Rattus norvegicus, UniProt P51577, C149A).
T2 construct: host or cells: Xenopus laevis oocytes
T2 sequence (P51577 1-388 C149A): T1 sequence (P51577 1-388 D170N) with C149A, N170D
As to the kind of experiment: ATP concentration–response curves, voltage clamp, C149A mutant. Particulars: for EC50: ATP EC50, C149A. It is filed as cell-based.

The target in a further test is T3, rP2 × 4R C126A mutant (Rattus norvegicus, UniProt P51577, C126A).
T3 sequence (P51577 1-388 C126A): T1 sequence (P51577 1-388 D170N) with C126A, N170D
As to the kind of experiment: ATP concentration–response curves, voltage clamp, C126A mutant.

Test [1] concerns the target T4, rP2 × 4R C132A/C159A mutant (Rattus norvegicus, UniProt P51577, C132A/C159A).
T4 construct: host or cells: Xenopus laevis oocytes
T4 sequence (P51577 1-388 C132A/C159A): T1 sequence (P51577 1-388 D170N) with C132A, C159A, N170D
The test is described as follows: ATP concentration–response curves, voltage clamp, C132A/C159A double mutant. To be noted: for EC50: ATP EC50, C132A/C159A. In kind it is cell-based.

The next test deals with T5, rP2 × 4R (Rattus norvegicus, UniProt P51577).
T5 construct: host or cells: Xenopus laevis oocytes (intranuclear plasmid injection, pcDNA3)
T5 sequence (P51577 1-388): T1 sequence (P51577 1-388 D170N) with N170D
As to the kind of experiment: ATP concentration–response curves, two-electrode voltage clamp in oocytes expressing wild type rP2 × 4R. It is filed as cell-based.

Test [2] addresses T6, rP2 × 4R C132S/C159S mutant (Rattus norvegicus, UniProt P51577, C132S/C159S).
T6 construct: host or cells: Xenopus laevis oocytes
T6 sequence (P51577 1-388 C132S/C159S): T1 sequence (P51577 1-388 D170N) with C132S, C159S, N170D
As to the kind of experiment: ATP concentration–response curves, voltage clamp, C132S/C159S double mutant. In kind it is cell-based.

Numbering of substitutions follows the chain as printed.

With `Nc1ncnc2c1ncn2[C@@H]1O[C@H](COP(=O)(O)OP(=O)(O)OP(=O)(O)O)[C@@H](O)[C@H]1O` [ATP, adenosine triphosphate], the EC50 at rP2 × 4R D170N mutant (+10 µM Zn(II)) was found to be 12.8 ± 8.1 µM; on rP2 × 4R D170N mutant (control) it was 19.3 ± 10.5 µM; at rP2 × 4R C149A mutant (+10 µM Zn(II)), 22.5 ± 7.5 µM; on rP2 × 4R C149A mutant (control) it was 39 ± 16.7 µM; on rP2 × 4R C126A mutant (ATP EC50, C126A, +10 µM Zn(II)) it was 9.3 ± 3 µM; in test [1] (+10 µM Zn(II)) it was 4.5 ± 1.6 µM. Moreover, the half-maximal effective concentration (EC50) worked out at 77.1 ± 24.1 µM in test [1] (control); 24.5 ± 9.1 µM at rP2 × 4R (ATP EC50, NEM treatment + Zn(II) group, control before treatment (first ATP curve)); 23 ± 8.3 µM on rP2 × 4R (ATP EC50, NEM treatment + vehicle group, control before treatment (first ATP curve)); 27.5 ± 10.6 µM on rP2 × 4R (ATP EC50, P2 × 4 WT, control); 79.8 ± 64.4 µM on rP2 × 4R (ATP EC50, after 300 µM DTNB + 10 µM Zn(II) treatment and washout, Figure S3); 44.9 ± 17.7 µM on rP2 × 4R (ATP EC50, after 300 µM NEM + 10 µM Zn(II) treatment, control = ATP curve after treatment). The EC50 at rP2 × 4R (ATP EC50, after 300 µM NEM + vehicle treatment, control = ATP curve after treatment) worked out at 23.8 ± 7 µM; at rP2 × 4R (ATP EC50, control of the DTNB + Zn(II) experiment, Figure S3), 50.3 ± 16 µM; at rP2 × 4R (ATP EC50, vehicle-treated oocytes (Barth's buffer), Figure 1A, without Zn(II)) it was 35.3 ± 6.6 µM; in test [2] (control), 20.5 ± 5 µM. Besides, the Imax on rP2 × 4R C149A mutant (C149A, +10 µM Zn(II)) was determined as 10.7 ± 3.5 µA; on rP2 × 4R C126A mutant (C126A, +10 µM Zn(II)), 11.7 ± 4.8 µA; at rP2 × 4R (after 300 µM NEM + 10 µM Zn(II) treatment, ATP curve in presence of 10 µM Zn(II)) it was 9.3 ± 2.2 µA.

In the case of `[Cl-].[Cl-].[Zn+2]` [Zn(II), zinc chloride (ZnCl2)], the “EC50 ratio in the metal presence” value on rP2 × 4R D170N mutant (D170N, 10 µM Zn(II)) stood at 1.5. Also, the “fold ATP EC50 decrease by Zn(II)” value at rP2 × 4R C149A mutant (C149A, 10 µM Zn(II)) is 1.73 fold. Also, the “fold reduction in ATP EC50 by Zn(II)” value is on record as 4.1 fold at rP2 × 4R C126A mutant (C126A, 10 µM Zn(II)); 17.1 fold in test [1] (C132A/C159A, 10 µM Zn(II)); 3.41 fold in test [2] (10 µM Zn(II)). In addition, at rP2 × 4R (10 µM Zn(II), vehicle-treated oocytes), the “fold reduction of ATP EC50 by Zn(II)” value is on record as 3.82 fold. Moreover, the “fold leftward shift of ATP EC50 by Zn(II)” value on rP2 × 4R (WT, matched paired control oocytes, 10 µM Zn(II)) was 3.45 fold.
